Measured values published in patent publication US8409833B2 (Hokko Chemical Industry Co., Ltd., priority 2003, dated 2013).

Tested on: NAD^+-independent myo-inositol 2-dehydrogenase
Experiment: NAD^+-independent myo-inositol 2-dehydrogenase activity (oxidized DCIP, absorbance at 600 nm): substrate specificity, Km, heavy metal inhibition
Conditions: for Km: enzyme derived from Acetobacter sp. AB10253, sugar concentration varied; for reaction of the enzyme with the sugar: sugar at a final concentration of 50 mM
Description: The enzyme activity of each fraction was measured by a standard method: that is, the change in absorbance at 600 nm of 1 ml of a solution containing 50 μl of the protein solution, 100 mM phosphate buffer (pH 5.0), 5 mg of myo-inositol, and 0.4 mg of 2,4-dichloroindophenol (oxidized DCIP) was calculated into a reaction rate, and an activity to oxidize 1 μmol of myo-inositol per minute was defined as one unit.
For measurement of the optimum pH, the enzyme activity was measured while changing a buffer and pH value. As the buffer, there were used 100 mM phosphate buffer (pH 3 to 8), 100 mM Tris buffer (pH 7 to 8), and 100 mM carbonate buffer (pH 8 to 11).
The substrate specificity of the target enzyme was determined by measuring the enzyme activity in a solution containing various sugars instead of myo-inositol at a final concentration of 50 mM.

Row | Compound | Km [mM] | reaction of the enzyme with the sugar | also measured
1 | OC1C(O)C(O)C(O)C(O)C1O [D-chiro-inositol] | 8.8 | – | –
2 | [Sn+2] [Sn^2+ ion, reference compound] | – | – | enzyme activity relative to the activity in the absence of the ion (1 mM ion, 100 mM phosphate buffer (pH 5.0)): ≤ 1%
3 | OC1C(O)C(O)C(O)C(O)C1O (stereo not drawn) [allo-inositol] | – | not to react | –
4 | OC1C(O)C(O)C(O)C(O)C1O (stereo not drawn) [muco-inositol] | 14.5 | – | –
5 | OC1C(O)[C@H](O)[C@H](O)C(O)[C@@H]1O (stereo partly drawn) [myo-inositol] | 20 | – | –
6 | OC1C(O)[C@H](O)[C@H](O)C(O)[C@H]1O (stereo partly drawn) [scyllo-inositol] | – | not to react | –
